# Measured values reported in patent publication US10219516B2, “Molecules having pesticidal utility, and intermediates, compositions, and processes, related thereto” (priority 2015, dated 2019).
# Like-named read-outs stand apart in the source and are kept apart here.
# Assays:
# Format in all cases: in vivo
# [1] = system: Beet Armyworm (Spodoptera exigua, LAPHEG); assay: Bioassay on Beet Armyworm (BAW), 128-well diet tray assay
# Summary of the method: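 Second instar larvae were exposed to diet treated at 50 μg/cm^2 for five to seven days at 25° C.; mortality was averaged over eight wells.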
# [2] = system: Yellow Fever Mosquito (Aedes aegypti, AEDSAE); assay: Bioassay on Yellow Fever Mosquito (YFM), 96-well plate larval assay; details: for YFM (Biological Results, rating): Species YFM (Yellow Fever Mosquito); for YFM rating: Yellow Fever Mosquito, 96-well plate larval assay
# Summary of the method: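 Compound stocks at 4000 ppm in DMSO were diluted with 90:10 water/acetone, and 15 μL aliquots were dispensed into six replicate plates. About 1-day-old larvae in liver-powder water were added per well. Plates were covered and held at room temperature for 3 days before each well was scored for mortality.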
# [3] = system: Cabbage Looper (Trichoplusia ni, TRIPNI); assay: Bioassay on Cabbage Looper (CL), 128-well diet tray assay; details: Trichoplusia ni
# Summary of the method: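 Diet-incorporation-free surface assay: 50 μg/cm^2 compound in acetone-water (90:10), dried on diet; 1–5 2nd-instar larvae/well; 8 wells; vented cover; 25° C., 14:10 L:D, 5–7 d; % mortality averaged over wells.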
# [4] = Species BAW (Beet Armyworm), read-out: BAW (Biological Results, rating)
# [5] = Species CL (Cabbage Looper), read-out: CL (Biological Results, rating)
# [6] = Beet Armyworm, 128-well diet tray assay, read-out: BAW rating
# [7] = Cabbage Looper, 128-well diet tray assay, read-out: CL rating
smiles,measurement,setting,value
"Nc1c(F)cnc(NC(=O)c2cc(NC(=O)[C@H]3[C@H](c4ccc(Cl)c(Cl)c4)C3(Cl)Cl)ccc2Cl)c1F [F371, N-(4-Amino-3,5-difluoropyridin-2-yl)-2-chloro-5-((1R,3R)-2,2-dichloro-3-(3,4-dichlorophenyl)cyclopropane-1-carboxamido)benzamide]",pest or weed control at 50 µg/cm2,[1]; [4],50 to 100%
same,"YFM (Biological Results, rating)",[2],A (80-100)
same,pest or weed control at 50 µg/cm2,[3]; [5],50 to 100%
"N#Cc1cc(Cl)cc(C2C(C(=O)Nc3ccc(Cl)c(C(=O)Nc4ccc(F)cc4)c3)C2(Cl)Cl)c1 (stereo not drawn) [PF155, 2-Chloro-5-(trans)-2,2-dichloro-3-(3-chloro-5-cyanophenyl)cyclopropane-1-carboxamido)-N-(4-fluorophenyl)benzamide]",pest or weed control at 50 µg/cm2,[1]; [6],50 to 100%
same,YFM rating,[2],B (More than 0-Less than 80)
same,pest or weed control at 50 µg/cm2,[3]; [7],50 to 100%
"Cc1cc([C@H]2[C@H](C(=O)Nc3ccc(Cl)c(C(=O)Nc4ccc(F)cc4)c3)C2(Cl)Cl)cc(Cl)c1Cl (relative stereo) [F123, trans-2-Chloro-5-(2,2-dichloro-3-(3,4-dichloro-5-methylphenyl)cyclopropane-1-carboxamido)-N-(4-fluorophenyl)benzamide]",pest or weed control at 50 µg/cm2,[1]; [4],50 to 100%
same,"YFM (Biological Results, rating)",[2],B (More than 0-Less than 80)
same,pest or weed control at 50 µg/cm2,[3]; [5],50 to 100%
"N#Cc1cc(Cl)cc([C@H]2[C@H](C(=O)Nc3ccc(Cl)c(C(=O)Nc4ncc(F)cc4F)c3)C2(Cl)Cl)c1 (relative stereo) [F342, trans-2-Chloro-5-(2,2-dichloro-3-(3-chloro-5-cyanophenyl)cyclopropane-1-carboxamido)-N-(3,5-difluoropyridin-2-yl)benzamide]",pest or weed control at 50 µg/cm2,[1]; [4],50 to 100%
same,"YFM (Biological Results, rating)",[2],A (80-100)
same,pest or weed control at 50 µg/cm2,[3]; [5],50 to 100%
"Nc1cncc(NC(=O)c2cc(NC(=O)[C@H]3[C@H](c4ccc(Cl)c(Cl)c4)C3(Cl)Cl)ccc2Cl)c1 [F363, N-(5-Aminopyridin-3-yl)-2-chloro-5-((1R,3R)-2,2-dichloro-3-(3,4-dichlorophenyl)cyclopropane-1-carboxamido)benzamide]",pest or weed control at 50 µg/cm2,[1]; [4],50 to 100%
same,"YFM (Biological Results, rating)",[2],A (80-100)
same,pest or weed control at 50 µg/cm2,[3]; [5],50 to 100%
"O=C(Nc1ccc(F)cc1[N+](=O)[O-])c1cc(NC(=O)[C@H]2[C@H](c3cc(Cl)cc(Cl)c3)C2(Cl)Cl)ccc1Cl (relative stereo) [F348, trans-2-Chloro-5-(2,2-dichloro-3-(3,5-dichlorophenyl)cyclopropane-1-carboxamido)-N-(4-fluoro-2-nitrophenyl)benzamide]",pest or weed control at 50 µg/cm2,[1]; [4],50 to 100%
same,"YFM (Biological Results, rating)",[2],A (80-100)
same,pest or weed control at 50 µg/cm2,[3]; [5],50 to 100%
"O=C(Nc1ccc2[nH]ccc2c1)c1cc(NC(=O)C2C(c3cc(Cl)cc(Cl)c3)C2(Cl)Cl)ccc1Cl (stereo not drawn) [F435, 2-Chloro-5-(trans)-2,2-dichloro-3-(3,5-dichlorophenyl)cyclopropane-1-carboxamido)-N-(1H-indol-5-yl)benzamide]",pest or weed control at 50 µg/cm2,[1]; [6],50 to 100%
same,YFM rating,[2],A (80-100)
same,pest or weed control at 50 µg/cm2,[3]; [7],50 to 100%
"Nc1c(F)ccc(NC(=O)c2cc(NC(=O)[C@H]3[C@H](c4cc(Cl)cc(Br)c4)C3(Cl)Cl)ccc2Cl)c1F (relative stereo) [F339, N-(3-Amino-2,4-difluorophenyl)-5-(trans-3-(3-bromo-5-chlorophenyl)-2,2-dichlorocyclopropane-1-carboxamido)-2-chlorobenzamide]",pest or weed control at 50 µg/cm2,[1]; [4],50 to 100%
same,"YFM (Biological Results, rating)",[2],A (80-100)
same,pest or weed control at 50 µg/cm2,[3]; [5],50 to 100%
"N#Cc1cc(F)ccc1NC(=O)c1cc(NC(=O)[C@H]2[C@H](c3cc(C(F)(F)F)cc(C(F)(F)F)c3)C2(Cl)Cl)ccc1Cl (relative stereo) [F308, trans-5-(3-(3,5-bis(Trifluoromethyl)phenyl)-2,2-dichlorocyclopropane-1-carboxamido)-2-chloro-N-(2-cyano-4-fluorophenyl)benzamide]",pest or weed control at 50 µg/cm2,[1]; [4],50 to 100%
same,"YFM (Biological Results, rating)",[2],A (80-100)
same,pest or weed control at 50 µg/cm2,[3]; [5],50 to 100%
"O=C(CC(F)(F)F)Nc1ccc(NC(=O)c2cc(NC(=O)[C@H]3[C@H](c4cc(Cl)cc(Cl)c4)C3(Cl)Cl)ccc2Cl)cc1 (relative stereo) [PF25, trans-2-chloro-5-(2,2-dichloro-3-(3,5-dichlorophenyl)cyclopropane-1-carboxamido)-N-(4-(3,3,3-trifluoropropanamido)phenyl)benzamide]",pest or weed control at 50 µg/cm2,[1]; [6],50 to 100%
same,YFM rating,[2],B (More than 0-Less than 80)
same,pest or weed control at 50 µg/cm2,[3]; [7],50 to 100%
"O=C(Nc1ccc(F)cc1F)c1cc(NC(=O)[C@H]2[C@H](c3ccc(Br)c(Cl)c3)C2(Cl)Cl)ccc1Cl (relative stereo) [F306, 5-(trans-3-(4-Bromo-3-chlorophenyl)-2,2-dichlorocyclopropane-1-carboxamido)-2-chloro-N-(2,4-difluorophenyl)benzamide]",pest or weed control at 50 µg/cm2,[1]; [4],50 to 100%
same,"YFM (Biological Results, rating)",[2],A (80-100)
same,pest or weed control at 50 µg/cm2,[3]; [5],50 to 100%
"O=C(Nc1cc(Cl)cc(Cl)c1)c1cc(NC(=O)[C@H]2[C@H](c3cc(Cl)cc(Cl)c3)C2(Cl)Cl)ccc1Cl (relative stereo) [PF76, trans-2-Chloro-5-(2,2-dichloro-3-(3,5-dichlorophenyl)cyclopropane-1-carboxamido)-N-(3,5-dichlorophenyl)benzamide]",pest or weed control at 50 µg/cm2,[1]; [6],50 to 100%
same,YFM rating,[2],A (80-100)
same,pest or weed control at 50 µg/cm2,[3]; [7],50 to 100%
"O=C(Nc1ncc(F)cc1F)c1cc(NC(=O)[C@H]2[C@H](c3ccc(C(F)F)c(Cl)c3)C2(Cl)Cl)ccc1Cl (relative stereo) [F588, 2-Chloro-5-(trans-2,2-dichloro-3-(3-chloro-4-(difluoromethyl)phenyl)cyclopropane-1-carboxamido)-N-(3,5-difluoropyridin-2-yl)benzamide]",pest or weed control at 50 µg/cm2,[1]; [6],50 to 100%
same,YFM rating,[2],A (80-100)
same,pest or weed control at 50 µg/cm2,[3]; [7],50 to 100%
"Cc1cc(Cl)cc([C@H]2[C@H](C(=O)Nc3ccc(Cl)c(C(=O)Nc4c(F)cccc4F)c3)C2(Cl)Cl)c1 (relative stereo) [F118, trans-2-Chloro-5-(2,2-dichloro-3-(3-chloro-5-methylphenyl)cyclopropane-1-carboxamido)-N-(2,6-difluorophenyl)benzamide]",pest or weed control at 50 µg/cm2,[1]; [4],50 to 100%
same,"YFM (Biological Results, rating)",[2],A (80-100)
same,pest or weed control at 50 µg/cm2,[3]; [5],50 to 100%
"O=C(Nc1ccc(F)cc1F)c1cc(NC(=O)[C@H]2[C@H](c3ccc(F)c(F)c3)C2(Cl)Cl)ccc1Cl (relative stereo) [F346, 2-Chloro-5-(trans)-(2,2-dichloro-3-(3,4-difluorophenyl)cyclopropane-1-carboxamido)-N-(2,4-difluorophenyl)benzamide]",pest or weed control at 50 µg/cm2,[1]; [4],50 to 100%
same,"YFM (Biological Results, rating)",[2],A (80-100)
same,pest or weed control at 50 µg/cm2,[3]; [5],50 to 100%
"O=C(Nc1ccc(F)cc1[N+](=O)[O-])c1cc(NC(=O)[C@H]2[C@H](c3cc(Cl)cc(Cl)c3)C2(Cl)Cl)ccc1Cl [F554, 2-Chloro-5-((1R,3R)-2,2-dichloro-3-(3,5-dichlorophenyl)cyclopropane-1-carboxamido)-N-(4-fluoro-2-nitrophenyl)benzamide]",pest or weed control at 50 µg/cm2,[1]; [6],50 to 100%
same,YFM rating,[2],A (80-100)
same,pest or weed control at 50 µg/cm2,[3]; [7],50 to 100%
"Cc1cc(N)ccc1NC(=O)c1cc(NC(=O)[C@H]2[C@H](c3cc(Cl)cc(Cl)c3)C2(Cl)Cl)ccc1Cl [F283, N-(4-Amino-2-methylphenyl)-2-chloro-5-((1R,3R)-2,2-dichloro-3-(3,5-dichlorophenyl)cyclopropane-1-carboxamido)benzamide]",pest or weed control at 50 µg/cm2,[1]; [4],50 to 100%
same,"YFM (Biological Results, rating)",[2],A (80-100)
same,pest or weed control at 50 µg/cm2,[3]; [5],50 to 100%
"N#Cc1ccccc1NC(=O)c1cc(NC(=O)[C@H]2[C@H](c3cc(Cl)cc(Cl)c3)C2(Cl)Cl)ccc1Cl (relative stereo) [PF72, trans-2-Chloro-N-(2-cyanophenyl)-5-(2,2-dichloro-3-(3,5-dichlorophenyl)cyclopropane-1-carboxamido)benzamide]",pest or weed control at 50 µg/cm2,[1]; [6],50 to 100%
same,YFM rating,[2],A (80-100)
same,pest or weed control at 50 µg/cm2,[3]; [7],50 to 100%
"N#Cc1cccc(F)c1NC(=O)c1cc(NC(=O)[C@H]2[C@H](c3cc(Cl)cc(Cl)c3)C2(Cl)Cl)ccc1Cl (relative stereo) [F299, 2-Chloro-N-(2-cyano-6-fluorophenyl)-5-(trans-2,2-dichloro-3-(3,5-dichlorophenyl)cyclopropane-1-carboxamido)benzamide]",pest or weed control at 50 µg/cm2,[1]; [4],50 to 100%
same,"YFM (Biological Results, rating)",[2],A (80-100)
same,pest or weed control at 50 µg/cm2,[3]; [5],50 to 100%
"CN1C(=O)Cc2cc(NC(=O)c3cc(NC(=O)[C@H]4[C@H](c5cc(Cl)cc(Cl)c5)C4(Cl)Cl)ccc3Cl)ccc21 (relative stereo) [F459, 2-Chloro-5-(trans)-(2,2-dichloro-3-(3,5-dichlorophenyl)cyclopropane-1-carboxamido)-N-(1-methyl-2-oxoindolin-5-yl)benzamide]",pest or weed control at 50 µg/cm2,[1]; [6],50 to 100%
same,YFM rating,[2],A (80-100)
same,pest or weed control at 50 µg/cm2,[3]; [7],50 to 100%
"C=Cc1cc(Cl)cc([C@H]2[C@H](C(=O)Nc3ccc(Cl)c(C(=O)Nc4ccc(F)cc4)c3)C2(Cl)Cl)c1 (relative stereo) [F350, 2-Chloro-5-(trans-2,2-dichloro-3-(3-chloro-5-vinylphenyl)cyclopropane-1-carboxamido)-N-(4-fluorophenyl)benzamide]",pest or weed control at 50 µg/cm2,[1]; [4],50 to 100%
same,"YFM (Biological Results, rating)",[2],A (80-100)
same,pest or weed control at 50 µg/cm2,[3]; [5],50 to 100%
